Among the data in the supplement of paper PMC10307832 are relative viability values, retold here.

Holding throughout (experiment): relative viability (nuclei count vs DMSO), 5 days (fraction); higher = more cells survive
Compound in assay [1]: C1=CC2=NC=CN=C2C=C1/C=C/3\C(=O)NC(=O)S3 + Cc1cc(Nc2cc(N3CCN(C)CC3)nc(Sc3ccc(NC(=O)C4CC4)cc3)n2)n[nH]1 [Tozasertib] (partner 0.1 µM)
In a few lines:
(§1)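 Five library-drug doses in √10 steps were combined with a fixed anchor-drug dose, or a single drug was given alone, by pin tool to lung cancer cell lines in 1536-well plates the day after seeding. Nuclei were stained and counted after 5 days. Relative viability is the nuclei count in treated wells over that in vehicle wells, taken as the median of duplicate plates.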

Compound in assay [2]: C1=CC2=NC=CN=C2C=C1/C=C/3\C(=O)NC(=O)S3 + CC(=O)c1c(C)c2cnc(Nc3ccc(N4CCNCC4)cn3)nc2n(C2CCCC2)c1=O [Palbociclib] (partner 0.5 µM)
In a few lines: as §1

Compound in assay [3]: CCN1CCN(c2ccc(Nc3cc(N(C)C(=O)Nc4c(Cl)c(OC)cc(OC)c4Cl)ncn3)cc2)CC1 [BGJ398]
In a few lines: (§2)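 For viability, nuclei in each treated well were divided by nuclei in vehicle wells and the median across plates was taken. Lung cancer cell lines in 1536-well plates were pinned with five library-drug doses (not always all listed) spaced by √10, cultured 5 days without medium change, and imaged at 4× after Hoechst staining, with plates passing only at control CV below 25% and at least one doubling.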

Compound in assay [4]: C1=CC2=NC=CN=C2C=C1/C=C/3\C(=O)NC(=O)S3
In a few lines:
as §2

As to UMC-11, the relative viability in assay [1] (first compound 0.02 µM) is 0.205; in assay [1] (first compound 0.06325 µM), 0.193; in assay [1] (first compound 0.2 µM) it was 0.202; in assay [1] (first compound 0.6325 µM), 0.203; in assay [1] (first compound 2 µM), 0.192; in assay [2] (first compound 0.02 µM) it was 0.341. The relative viability is 0.328 in assay [2] (first compound 0.06325 µM); 0.33 in assay [2] (first compound 0.2 µM); 0.328 in assay [2] (first compound 0.6325 µM); 0.414 in assay [2] (first compound 2 µM); 0.955 in assay [3] (0.01 µM); 1.05 in assay [3] (0.03162 µM). Further, the relative viability in assay [3] (0.1 µM) came to 1.05; in assay [3] (0.3162 µM), 0.968; in assay [3] (1 µM) it was 0.919; in assay [4] (0.02 µM) it was 0.978; in assay [4] (0.06325 µM), 1; in assay [4] (0.2 µM), 1.01. For the same cell line, the values for the relative viability in assay [4] (0.6325 µM) and in assay [4] (2 µM) were 0.925 and 1.06, respectively.
